Measurements taken from publication PMC11124870, “Effect of Antioxidants in Medicinal Products on Intestinal Drug Transporters” (Pharmaceutics, 2024).

Columns and labels:
BCRP [1] = target: T1, BCRP (Homo sapiens, UniProt Q9UNQ0); assay: Transwell transport assay, basal-to-apical prazosin flux in MDCK-hBCRP-cMDR1-KO cells; conditions: BHA 178 µM on both sides; 3H-prazosin 1 µM; 4 h
T1 sequence (Q9UNQ0 1-655): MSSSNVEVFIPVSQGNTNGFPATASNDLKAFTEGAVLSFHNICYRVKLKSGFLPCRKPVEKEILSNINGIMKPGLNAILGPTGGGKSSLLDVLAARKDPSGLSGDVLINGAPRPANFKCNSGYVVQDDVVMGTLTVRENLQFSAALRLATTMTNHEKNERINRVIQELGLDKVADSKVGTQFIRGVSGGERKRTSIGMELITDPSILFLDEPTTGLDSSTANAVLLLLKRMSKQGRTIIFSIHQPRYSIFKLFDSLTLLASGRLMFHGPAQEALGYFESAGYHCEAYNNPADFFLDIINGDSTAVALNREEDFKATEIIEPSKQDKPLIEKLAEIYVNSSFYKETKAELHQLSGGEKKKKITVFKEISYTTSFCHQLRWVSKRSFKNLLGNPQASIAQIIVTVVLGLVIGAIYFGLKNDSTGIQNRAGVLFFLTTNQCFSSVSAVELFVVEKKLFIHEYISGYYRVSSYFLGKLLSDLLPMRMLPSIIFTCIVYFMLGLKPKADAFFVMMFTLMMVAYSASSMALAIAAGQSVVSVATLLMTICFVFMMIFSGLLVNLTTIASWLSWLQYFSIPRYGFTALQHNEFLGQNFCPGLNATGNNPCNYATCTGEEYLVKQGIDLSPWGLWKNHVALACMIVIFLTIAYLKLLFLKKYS
Experimental: The transport assay was performed using MDCK-hMDR1-cMDR1-KO, MDCK-cMDR1-KO, and MDCK-hBCRP-cMDR1-KO as reported previously with minor modifications. In brief, 133,000 cells were seeded onto a Transwell membrane insert, a semipermeable polyethylene terephthalate membrane. During the differentiation process, the medium volume in the apical chamber was kept at 300 μL, while the basal chamber contained 1000 μL. The cells were allowed to differentiate for 7–9 days at 37 °C in a humidified incubator with 5% CO2. Before starting transporter assays, the integrity of the cell monolayer was checked using lucifer yellow permeability assays. […] From the basal chamber, 100 μL samples were collected for fluorescence measurements using GloMax® Explorer with a 475 nm excitation filter and a 500–550 nm emission filter to calculate the percent permeability per well.
To assess the flux of digoxin or prazosin from the basal to apical side, the cells were washed twice with HBSS. […] All apical and basal samples were mixed with scintillation fluid (EcoLite(+)™ liquid scintillation cocktail), and their radioactivity was measured using liquid scintillation counting (Beckman LS6500). […] For data analysis, the disintegration per minute counts of digoxin or prazosin from the apical samples were converted to picomoles using radioactivity measured in the substrate solution.

BCRP [2] = target: T1, BCRP; assay: Vesicular transport assay, 3H-CCK8 uptake in BCRP membrane vesicles; assay type: biochemical; set-up: purchased ThermoFisher Scientific GM0008; host or cells: Sf9 membrane vesicles
Experimental: The vesicular transport assay was performed using Spodoptera frugiperda 9 (Sf9) membrane vesicles overexpressing human P-gp or BCRP, as reported previously with minor modifications. In brief, Isoplate 96-well flat-bottom white plates were preincubated with HBSS containing 0.5 mg/mL BSA on an orbital shaker in a 37 °C incubator at 90 rpm for 60 min followed by washing with HBSS. The assay mixture (75 µL/well) contained a probe substrate and either vehicle control, a known inhibitor of P-gp or BCRP, or an antioxidant, in vesicle uptake buffer (50 mM MOPS-Tris, pH 7.0 + 70 mM KCl + 7.5 mM MgCl2) prewarmed to 37 °C. After addition of the assay mixture, 5 μL/well (5 μg/μL stock concentration of the vesicles) of vesicles overexpressing human P-gp or BCRP was added. Uptake assays were initiated by adding 20 μL of either 25 mM adenosine triphosphate (ATP) or 25 mM adenosine monophosphate (AMP) to a final concentration of 5 mM. Plates were incubated at 37 °C for 20 min with orbital shaking (90 rpm). After 20 min, the uptake was quenched by adding 150 μL of ice-cold wash buffer (40 mM MOPS-Tris, pH 7.0 + 70 mM KCl) to each well, and the mixture was transferred to a 96-well filtration plate. Vacuum was applied, and the vesicles were washed three times with wash buffer. Vesicles were then lysed with 100 µL of MicroScint-20.

Compound: COc1ccc(O)cc1C(C)(C)C [Butylated hydroxyanisole (BHA), 2-tert-Butyl-4-hydroxyanisole]
- Inhibition of prazosin efflux (basal to apical) (BCRP [1]): did not inhibit prazosin efflux
- Inhibition of BCRP (BCRP [2]; 200 µM, 3H-CCK8): at least 50%
- % Uptake of 3H-CCK8 BCRP (BCRP [2]; antioxidant 200 µM, uptake with DMSO set as 100%, mean ± SD, three replicates, membrane vesicles): 46.7 ± 5.5%
- IC50 (BCRP [2]; substrate 3H-CCK8, mean ± SD of three independent experiments): 206 ± 14 µM
